Assays:
Assay type in all cases: cell-based, Influenza virus A/Udorn/72
A/M2-V27A/L38F = A/M2-V27A/L38F (Influenza A virus, UniProt P0DOF5, L38F/V27A)
A/M2-V27A = A/M2-V27A (Influenza A virus, UniProt P0DOF5, V27A); details: for inhibition of the mutant: 100 µM
A/M2-G34E = A/M2-G34E (Influenza A virus, UniProt P0DOF5, G34E)
A/M2-A30T = A/M2-A30T (Influenza A virus, UniProt P0DOF5, A30T)
A/M2-L26F = A/M2-L26F (Influenza A virus, UniProt P0DOF5, L26F)
A/M2-S31N = A/M2-S31N (Influenza A virus, UniProt P0DOF5, S31N)
A/M2-V27G = A/M2-V27G (Influenza A virus, UniProt P0DOF5, V27G)

Row | Compound | sensitivity of the double mutant channel (A/M2-V27A/L38F) | inhibition of the mutant (A/M2-V27A) | % remaining activity after application of 100 μM compound (A/M2-G34E) [%] | % remaining activity after application of 100 μM compound (A/M2-A30T) [%] | % remaining activity after application of 100 μM compound (A/M2-L26F) [%] | IC50 (A/M2-L26F) [mM] | % remaining activity after application of 100 μM compound (A/M2-S31N) [%] | IC50 (A/M2-S31N) [mM] | % remaining activity after application of 100 μM compound (A/M2-V27G) [%] | % remaining activity after application of 100 μM compound (A/M2-V27A) [%] | IC50 (A/M2-V27A) [mM] | inhibition of the mutant (A/M2-S31N)
1 | NC12CC3CC(CC(C3)C1)C2 [Amantadine, amantadine] | not sensitive | less than 10% |  |  |  |  |  |  |  |  |  | 
2 | C1CCC2(CC1)CCN(C1=NCCN1)CC2 [BL-1743, 2-[3-azaspiro([5],[5])undecanol]-2-imidazoline] | not sensitive | less than 10% | 89.8±6.9 | 102±2.3 | 89.2±4.8 | > 10 | 100±0.67 | > 10 | 82.9±9.3 | 97.4±1.8 | > 10 | 
3 | NC1CCC2(CCCCC2)CC1 [Compound 8, spiro[5.5]undecan-3-amine] |  |  |  | 98.1±7.0 | 32.4±3.3 |  | 99.1±0.9 |  | 87.9±6.1 | 46.6±6.6 |  | little inhibition

— article PMC2794939 (Biochemistry, 2009)
